28 compounds from patent US20180044329A1, “3-SUBSTITUTED-1,2,4-OXADIAZOLE AND THIADIAZOLE COMPOUNDS AS IMMUNOMODULATORS” (AURIGENE DISCOVERY TECHNOLOGIES LIMITED, priority 2015, published 2018) can be followed below.

Structures are written as SMILES.

The test system of the experiment is Recombinant mouse PD-L1. The experiment in a line: Rescue of mouse splenocyte proliferation in the presence of recombinant PD-L1 (CFSE proliferation assay). As to conditions: compound at 100 nM; anti-CD3/CD28 stimulated mouse splenocytes + PD-L1; 72 h; stimulated splenocyte proliferation normalised as 100%; read-out: Percent rescue of splenocyte proliferation (@100 nM). It counts as cell-based. Here is the method:
Rescue of Mouse Splenocyte Proliferation in the Presence of Recombinant PD-L1
Recombinant mouse PD-L1 (rm-PDL-1, cat no: 1019-B7-100; R&D Systems) were used as the source of PD-L1.
Mouse splenocytes harvested from 6-8 weeks old C57 BL6 mice; RPMI 1640 (GIBCO, Cat #11875); DMEM with high glucose (GIBCO, Cat #D6429); Fetal Bovine Serum [Hyclone, Cat #SH30071.03]; Penicillin (10000 unit/mL)-Streptomycin (10,000 μg/mL) Liquid (GIBCO, Cat #15140-122); MEM Sodium Pyruvate solution 100 mM (100×), Liquid (GIBCO, Cat #11360); Nonessential amino acid (GIBCO, Cat #11140); L-Glutamine (GIBCO, Cat #25030); Anti-CD3 antibody (eBiosciences—16-0032); Anti-CD28 antibody (eBiosciences—16-0281); ACK lysis buffer (1 mL) (GIBCO, Cat #-A10492); Histopaque (density-1.083 gm/mL) (SIGMA 10831); Trypan blue solution (SIGMA-T8154); 2 mL Norm Ject Luer Lock syringe-(Sigma 2014-12); 40 μm nylon cell strainer (BD FALCON 35230); Hemacytometer (Bright line-SIGMA Z359629); FACS Buffer (PBS/0.1% BSA): Phosphate Buffered Saline (PBS) pH 7.2 (Hi-Media TS1006) with 0.1% Bovine Serum Albumin (BSA) (SIGMA A7050) and sodium azide (SIGMA 08591); 5 mM stock solution of CFSE: CFSE stock solution was prepared by diluting lyophilized CFSE with 180 μL of Dimethyl sulfoxide (DMSO C2H6SO, SIGMA-D-5879) and aliquoted in to tubes for further use. Working concentrations were titrated from 10 μM to 1 μM. (eBioscience-650850-85); 0.05% Trypsin and 0.02% EDTA (SIGMA 59417C); 96-well format ELISA plates (Corning CLS3390); BD FACS caliber (E6016); Recombinant mouse B7-H1/PDL1 Fc Chimera, (rm-PD-L1 cat no: 1019-B7-100).
Splenocytes harvested in a 50 mL falcon tube by mashing mouse spleen in a 40 μm cell strainer were further treated with 1 mL ACK lysis buffer for 5 min at room temperature. After washing with 9 mL of RPMI complete media, cells were re-suspended in 3 mL of 1× PBS in a 15 mL tube. 3 mL of Histopaque was added carefully to the bottom of the tube without disturbing overlaying splenocyte suspension. After centrifuging at 800×g for 20 min at room temperature, the opaque layer of splenocytes was collected carefully without disturbing/mixing the layers. Splenocytes were washed twice with cold 1× PBS followed by total cell counting using Trypan Blue exclusion method and used further for cell based assays.
Splenocytes were cultured in RPMI complete media (RPMI+10% fetal bovine serum+1 mM sodium pyruvate+10,000 units/mL penicillin and 10,000 μg/mL streptomycin) and maintained in a CO2 incubator with 5% CO2 at 37° C.
CFSE is a dye that passively diffuses into cells and binds to intracellular proteins. 1×10^6 cells/mL of harvested splenocytes were treated with 5 μM of CFSE in pre-warmed 1× PBS/0.1% BSA solution for 10 min at 37° C. Excess CFSE was quenched using 5 volumes of ice-cold culture media to the cells and incubated on ice for 5 min CFSE labelled splenocytes were further given three washes with ice cold complete RPMI media. CFSE labelled 1×10^5 splenocytes added to wells containing either MDA-MB231 cells (1×10^5 cells cultured in high glucose DMEM medium) or recombinant human PDL-1 (100 ng/mL) and compounds of the present invention. Splenocytes were stimulated with anti-mouse CD3 and anti-mouse CD28 antibody (1 μg/mL each) and the culture was further incubated for 72 h at 37° C. with 5% CO2. Cells were harvested and washed thrice with ice cold FACS buffer and % proliferation was analysed by flow cytometry with 488 nm excitation and 521 nm emission filters.
Percent splenocyte proliferation was analysed using cell quest FACS program and percent rescue of splenocyte proliferation by compound was estimated after deduction of % background proliferation value and normalising to % stimulated splenocyte proliferation (positive control) as 100%. […]
Take `CC(O)[C@H](NC(=O)N[C@@H](CC(=O)O)c1nc(-c2cnccn2)no1)C(=O)O` (stereo partly shown) [Compound 41]: the activity at 0.1 µM came to 73%. The result for `CC(O)[C@H](NC(=O)N[C@@H](Cc1cn(-c2ccccc2C(=O)O)nn1)c1nc(-c2cnccn2)no1)C(=O)O` (stereo partly shown) [Compound 31] reads 67%; that for `CC(O)[C@H](NC(=O)N[C@@H](CCC(=O)O)c1nc(N2CCCC2)no1)C(=O)O` (stereo partly shown) [Compound 39], 39%; that for `NCCCC[C@H](NC(=O)N[C@@H](CC(N)=O)c1nc([C@H]2CCCCN2)no1)C(=O)O` [Compound 34], 78%.

Consider `C#CC[C@H](NC(=O)N[C@H](C(=O)O)C(C)O)c1nc(-c2cnccn2)no1` (stereo partly shown) [Compound 32], for which the activity at 0.1 µM is 92%.

Regarding `CC(O)[C@H](NC(=O)N[C@@H](CCC(=O)O)c1nc([C@@H]2COCCN2)no1)C(=O)O` (stereo partly shown) [Compound 47], the activity at 0.1 µM came out at 57%. For the compound `CC(O)[C@H](NC(=O)N[C@@H](CC(N)=O)c1nc(-c2cc(F)ccc2F)no1)C(=O)O` (stereo partly shown) [Compound 25], the activity at 0.1 µM worked out at 42%. The value for `CC(O)[C@H](NC(=O)N[C@@H](CC(N)=O)c1nc(N2CCCCC2)no1)C(=O)O` (stereo partly shown) [Compound 15] was 54%. The result for `CC(O)[C@H](NC(=O)N[C@@H](CC(N)=O)c1nc(N2CCC[C@H](O)C2)no1)C(=O)O` (stereo partly shown) [Compound 27] reads 6%; that for `CC(O)[C@H](NC(=O)N[C@@H](CC(N)=O)c1nc(C2(N)CCCC2)no1)C(=O)O` (stereo partly shown) [Compound 48], 47%; that for `CC(O)[C@H](NC(=O)N[C@@H](CC(N)=O)c1nc(C2CCCCC2)no1)C(=O)O` (stereo partly shown) [Compound 46], 52%. `CC(O)[C@H](NC(=O)N[C@@H](CC(N)=O)c1nc([C@@H]2CCCCN2)no1)C(=O)O` (stereo partly shown) [Compound 44]: the activity at 0.1 µM came to 84%.

For `CC(O)[C@H](NC(=O)N[C@@H](CC(N)=O)c1nc(-c2ccc(-c3ccccc3)cc2)no1)C(=O)O` (stereo partly shown) [Compound 40], the activity at 0.1 µM stood at 79%. Take `CC(O)[C@H](NC(=O)N[C@@H](CC(N)=O)c1nc([C@@H]2C[C@@H](O)CN2)no1)C(=O)O` (stereo partly shown) [Compound 51]: the activity at 0.1 µM came out at 44%.

On to `CC(O)[C@H](NC(=O)N[C@@H](CC(N)=O)c1nc(N2CCNCC2)no1)C(=O)O` (stereo partly shown) [Compound 16], for which the activity at 0.1 µM turned out to be 79%. Consider `CC(O)[C@H](NC(=O)N[C@@H](CC(N)=O)c1nc(-c2cccc(F)c2)no1)C(=O)O` (stereo partly shown) [Compound 24], for which the activity at 0.1 µM came to 50%.

In the case of `CC(O)[C@H](NC(=O)N[C@@H](CCC(=O)O)c1nc(-c2cc(F)ccc2F)no1)C(=O)O` (stereo partly shown) [Compound 37], the activity at 0.1 µM worked out at 74%. The value for `Cc1ccc(-c2noc([C@H](CC(N)=O)NC(=O)N[C@H](C(=O)O)C(C)O)n2)o1` (stereo partly shown) [Compound 26] was 24%. The value for `CC(O)[C@H](NC(=O)N[C@@H](CC(N)=O)c1nc([C@@H]2COCCN2)no1)C(=O)O` (stereo partly shown) [Compound 43] was 92%; that for `COc1ccnc(-c2noc([C@H](CC(N)=O)NC(=O)N[C@H](C(=O)O)C(C)O)n2)c1` (stereo partly shown) [Compound 23] was 27%. Take `CC(O)[C@H](NC(=O)N[C@@H](CC(N)=O)c1nc(-c2ccccn2)no1)C(=O)O` (stereo partly shown) [Compound 20]: the activity at 0.1 µM was found to be 27%. `CC(O)[C@H](NC(=O)N[C@@H](CC(N)=O)c1nc([C@@H]2CNCCN2)no1)C(=O)O` (stereo partly shown) [Compound 45]: the activity at 0.1 µM came to 49%. For `CC(O)[C@H](NC(=O)N[C@@H](CC(=O)O)c1nc(N2CCCC2)no1)C(=O)O` (stereo partly shown) [Compound 38], the activity at 0.1 µM worked out at 27%. Consider `O=C(O)CNC(=O)N[C@@H](CC(=O)O)c1nc(N2CCCC2)no1` [Compound 30], for which the activity at 0.1 µM came out at 7%.

With `C[C@H](NC(=O)N[C@@H](CCCCN)c1nc([C@@H]2CCCN2)no1)C(=O)O` [Compound 52], the activity at 0.1 µM amounted to 46%.

With `CC(O)[C@H](NC(=O)N[C@@H](CC(N)=O)c1nc(C2(N)CCCCC2)no1)C(=O)O` (stereo partly shown) [Compound 49], the activity at 0.1 µM was 16%. Regarding `CC(O)[C@H](NC(=O)N[C@@H](CC(N)=O)c1nc(-c2cc(Cl)ccn2)no1)C(=O)O` (stereo partly shown) [Compound 22], the activity at 0.1 µM is 39%. `CC(O)[C@H](NC(=O)N[C@@H](CC(N)=O)c1nc(-c2cnccn2)no1)C(=O)O` (stereo partly shown) [Compound 21]: the activity at 0.1 µM came to 39%.
